Values joined by “and” are separate entries in the source; they are usually repeats but may differ in a detail not shown here. Equal values may be shown once. Read-outs that look alike come from different tables or passages of the source.
Key:
[1] = molecular target: benzodiazepine site on the GABAA receptor; assay: [3H]-flumazenil binding assay (GABA-benzodiazepine binding assay); parameters: species or system rat; details: for Ki: as worded in text b6; for IC50: rat brain cortex, 0.5 nM [3H]-flumazenil, mean ± standard error, n.d. = not detected in tested concentrations below 10 mM; for affinity for the benzodiazepine site (in words): [3H]-flumazenil binding assay
Method: (§1) The GABA binding assay was carried out according to a previously published method, with modifications. To a suspension of rat brain cortex (500 µL) was added test solution (25 µL) and [^3H]-flumazenil (25 µL, Ro 15-1788, Perkin-Elmer Life Science) to 0.5 nM final concentration in the assay. The suspension was mixed and incubated for 40 min on ice and poured directly onto glass fiber filters (Adventic, GC-50) under suction, in an ice-bath, followed by washing with ice-cold Tris-citrate buffer. The amount of radioactivity was determined by liquid scintillation counting. Non-specific binding was determined using diazepam (1 µM final concentration in the assay) and flumazenil was used as positive control. Specific binding was calculated as total binding minus non-specific binding. All experiments were done in triplicate. The serotonin re-uptake inhibition assay was performed according to previously described methods.

[2] = molecular target: serotonin re-uptake transport protein (Rattus norvegicus, UniProt P31652); assay: [3H]-citalopram binding assay (serotonin re-uptake inhibition assay)
Sequence of serotonin re-uptake transport protein (P31652 whole entry): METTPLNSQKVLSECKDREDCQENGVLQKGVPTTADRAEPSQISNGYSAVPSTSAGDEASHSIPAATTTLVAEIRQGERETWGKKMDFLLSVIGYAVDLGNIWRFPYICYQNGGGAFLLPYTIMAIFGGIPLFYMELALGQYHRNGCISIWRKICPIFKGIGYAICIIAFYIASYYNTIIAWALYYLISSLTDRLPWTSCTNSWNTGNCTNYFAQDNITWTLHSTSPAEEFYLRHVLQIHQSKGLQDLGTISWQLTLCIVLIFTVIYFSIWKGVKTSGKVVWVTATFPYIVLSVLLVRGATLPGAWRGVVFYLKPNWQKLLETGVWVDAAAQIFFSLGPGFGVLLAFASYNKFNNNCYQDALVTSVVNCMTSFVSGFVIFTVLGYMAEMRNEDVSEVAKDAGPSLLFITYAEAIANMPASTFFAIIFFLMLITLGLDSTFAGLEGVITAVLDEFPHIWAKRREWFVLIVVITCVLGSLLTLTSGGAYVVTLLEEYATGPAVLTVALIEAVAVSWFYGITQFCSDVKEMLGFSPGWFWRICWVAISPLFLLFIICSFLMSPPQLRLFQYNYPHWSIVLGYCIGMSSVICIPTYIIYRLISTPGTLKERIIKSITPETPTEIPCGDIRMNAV
Method: as §1

MES seizures in mice = tested on: MES seizures in mice; parameters: method as in doi:10.1016/S0165-7208(06)80055-3; details: cited from earlier work
GABAA receptor = tested on: GABAA receptor; parameters: method as in PMID 1332016; details: cited from earlier work
[3] = mean ± standard error, n.d. = not detected in tested concentrations below 10 mM, read-out: [3H]-citalopram binding assay IC50
[4] = read-out: Ki, serotonin re-uptake transport protein

Structure (SMILES): O=C(/C=C/CCc1ccc2c(c1)OCO2)N1CCCCC1 [Compound 2, 4,5-Dihydropiperine]
- Ki [1]: 1.054 ± 0.004 mM
- IC50 [1]: 1 mM and 1.05 mM
- IC50 [2, 3]: 2.98 ± 1.63 mM
- IC50 [2, 4]: 2.98 ± 1.63 mM

Structure (SMILES): O=C(/C=C/CCc1cc2c(cc1Cl)OCO2)N1CCCCC1 [Compound 8, trans-5-(6-Chlorobenzo[1,3]dioxol-5-yl)-1-(piperidin-1-yl)pent-2-en-1-one]
- IC50 [2, 3]: 2.69 ± 1.39 mM
- IC50 [2, 4]: 2.69 ± 1.39 mM

Structure (SMILES): O=C(CCc1ccc2c(c1)OCO2)N1CCCCC1 [Compound 6, 3-Benzo[1,3]dioxol-5-yl-1-piperidin-1-yl-propan-1-one]
- affinity for the benzodiazepine site (in words) [1]: lack of affinity
- protection against MES induced seizures (MES seizures in mice): protection

Structure (SMILES): O=C(/C=C/c1ccc2c(c1)OCO2)N1CCCCC1 [Compound 5, Antiepilepsirine]
- affinity for the benzodiazepine site (in words) [1]: no affinity

Structure (SMILES): COC1=CC(=O)O[C@@H](/C=C/c2ccc3c(c2)OCO3)C1 [methysticin, Methysticin]
- association of GABAA receptor activation with the benzodiazepine binding site (GABAA receptor): not to be associated with the benzodiazepine binding site

Structure (SMILES): O=C(CCCCc1ccc2c(c1)OCO2)N1CCCCC1 [Compound 4, Tetrahydropiperidine]
- IC50 [2, 3]: 0.585 ± 1.52 mM

Structure (SMILES): CC(C)NC(=O)CCc1ccc2c(c1)OCO2 [Compound 10, 3-Benzo[1,3]dioxol-5-yl-N-isopropyl-propionamide]
- affinity for the benzodiazepine site (in words) [1]: lack of affinity
- protection against MES induced seizures (MES seizures in mice): protection

Structure (SMILES): O=C(/C=C/C=C/c1ccc2c(c1)OCO2)N1CCCCC1 [Compound 1, Piperine]
- Ki [1]: 1.175 ± 0.003 mM
- IC50 [1]: 1.2 mM and 1.18 mM

— publication PMC6255099, “Amides from Piper capense with CNS Activity – A Preliminary SAR Analysis” (Molecules, 2009)
